These results are taken from patent US20090143317A1, “Quercetin Glycoside Composition and Method of Preparing the Same” (Suntory Limited, priority 2004, published 2009).

The conditions of data set [1]: in vivo; cited from earlier work.
A short description of data set [2]: Measurement of migration into the blood (orally administered in vivo absorbability). The arrangement: species or system SD male rats. As to conditions: rat, po, 150 umol/kg. As to the method: Blood was collected from the tail vein 0 minutes (before the administration), 30 minutes, 1 hour, and 3 hours after the administration, and heparin was added thereto. Centrifugation was then performed, and, from the supernatant, heparin plasma samples were prepared. The concentrations of quercetin-glucuronide conjugate and quercetin in the prepared heparin plasma samples were measured by HPLC under the following conditions. AUC (Area under the curve) (0 to 3 hr) (μg/ml·hr) was then calculated based on the area under the curve of the plasma concentration of quercetin-glucuronide conjugate (μg/ml) and the area under the curve of the plasma concentration of quercetin (μg/ml). Quercetin-glucuronide conjugate and quercetin are both in vivo metabolites of isoquercitrin. […] Subsequently, in the same manner as in Experiment 1, plasma was prepared, and the plasma concentration of quercetin-glucuronide conjugate and that of quercetin were measured by HPLC. […] Subsequently, in the same manner as in Experiment 1, plasma was prepared, and the plasma concentration of quercetin-glucuronide conjugate and that of quercetin were measured by HPLC. AUC (Area under the curve) (0 to 3 hr) (μg/ml·hr) was then calculated based on the area under the curve of the plasma concentration of quercetin-glucuronide conjugate (μg/ml) and the area under the curve of the plasma concentration of quercetin (μg/ml). […]

For `O=c1c(O[C@@H]2O[C@H](CO)[C@@H](O)[C@H](O)[C@H]2O)c(-c2ccc(O)c(O)c2)oc2cc(O)cc(O)c12` [IQC, quercetin 3-O-μ-D-glucopyranoside], the absorbability result in data set [1] was “higher absorbability than quercetin and rutin”. Besides, the “migration into the blood (orally administered in vivo absorbability), AUC (0 to 3 hr) of plasma quercetin-glucuronide conjugate plus quercetin” value in data set [2] is listed as “reduce absorbability”.
Regarding `O=c1c(OC2OC(CO)C(OC3OC(CO)C(O)C(O)C3O)C(O)C2O)c(-c2ccc(O)c(O)c2)oc2cc(O)cc(O)c12` (centres unmarked) [IQC-G1], the “migration into the blood (orally administered in vivo absorbability), AUC (0 to 3 hr) of plasma quercetin-glucuronide conjugate plus quercetin” value in data set [2] is on record as “higher absorbability in this order”.
As to `O=c1c(O[C@@H]2O[C@H](CO)[C@@H](O)[C@H](O)[C@H]2O)c(-c2ccc(O[C@@H]3O[C@H](CO)[C@@H](O)[C@H](O)[C@H]3O)c(O)c2)oc2cc(O)cc(O)c12` [Quercetin-3,4′-β-D-glucoside], the absorbability result in data set [1] is given as “higher absorbability”.
`O=c1c(O)c(-c2ccc(O[C@@H]3O[C@H](CO)[C@@H](O)[C@H](O)[C@H]3O)c(O)c2)oc2cc(O)cc(O)c12` [Quercetin-4′-β-D-glucoside]: in data set [1], the absorbability entry is listed as “higher absorbability”.
